Experimental data published in patent US20120053115A1, “Lantibiotic Carboxyamide Derivatives With Enhanced Antibacterial Activity” (Sentinella Pharmaceuticals, Inc., priority 2008, published 2012).

Legend:
[1] = test system: E. faecalisVanA (code 560); details: E. faecalis VanA code 560; 0.02% albumine bovine serum; read after 24 h
Method: (§1) MICs were performed using the broth microdilution methodology following the NCCLS procedure (NCCLS Document M7-A4 Vol. 17 No. 2 January 1997) in presence of 0.02% albumine bovine serum with inocula of approximately 5×10^5 cfu/mL. The media employed included cation-adjusted Mueller-Hinton (MH) broth (Difco Laboratories, Detroit, Mich., USA) supplemented or not with 30% (v/v) bovine serum. Tests were read after 24 h incubation at 25-37° C.

[2] = test system: Enterococcus faecium VanS (code 568); details: E. faecium VanS code 568; 0.02% albumine bovine serum; read after 24 h
Method: as §1

[3] = test system: C. albicans ATCC 90028 (code 145); details: 0.02% albumine bovine serum, read after 24 h
Method: as §1

[4] = test system: S. haemolyticus Met-S (code 1730); details: 0.02% albumine bovine serum, read after 24 h
Method: as §1

[5] = test system: Escherichia coli (code 47); details: 0.02% albumine bovine serum, read after 24 h
Method: as §1

[6] = test system: E. faecium VanA (code 569); details: 0.02% albumine bovine serum, read after 24 h
Method: as §1

[7] = test system: S. haemolyticus Met-R (code 1729); details: 0.02% albumine bovine serum, read after 24 h
Method: as §1

[8] = test system: S. epidermidis ATCC12228 (code 147); details: 0.02% albumine bovine serum, read after 24 h
Method: as §1

[9] = test system: Staphylococcus aureus VISA (code 3798); details: S. aureus VISA code 3798; 0.02% albumine bovine serum; read after 24 h
Method: as §1

[10] = test system: E. faecalisVanS (code 559); details: E. faecalis VanS code 559; 0.02% albumine bovine serum; read after 24 h
Method: as §1

[11] = test system: Staphylococcus aureus VISA Met-R (code 3797); details: S. aureus VISA Met-R code 3797; 0.02% albumine bovine serum; read after 24 h
Method: as §1

S. pyogenes (code 49) = details: 0.02% albumine bovine serum, read after 24 h
Method: as §1

| SMILES | Minimal Inhibitory Concentrations [1] [µg/mL] | Minimal Inhibitory Concentrations [2] [µg/mL] | Minimal Inhibitory Concentrations [3] [µg/mL] | Minimal Inhibitory Concentrations [4] [µg/mL] | Minimal Inhibitory Concentrations [5] [µg/mL] | Minimal Inhibitory Concentrations [6] [µg/mL] | Minimal Inhibitory Concentrations [7] [µg/mL] | Minimal Inhibitory Concentrations [8] [µg/mL] | Minimal Inhibitory Concentrations [9] [µg/mL] | Minimal Inhibitory Concentrations [10] [µg/mL] | Minimal Inhibitory Concentrations [11] [µg/mL] | Minimal Inhibitory Concentrations (S. pyogenes (code 49)) [µg/mL] |
| --- | --- | --- | --- | --- | --- | --- | --- | --- | --- | --- | --- | --- |
| C=C1NC(=O)[C@H](C(C)C)NC(=O)[C@H](NC(=O)/C(=C/C)NC(=O)[C@@H](N)[C@@H](C)CC)CSC[C@@H](C(=O)N[C@H]2C(=O)N3CCC[C@H]3C(=O)NCC(=O)N[C@H](C(=O)N[C@H](C(=O)N[C@@H]3CSC[C@@H]4NC(=O)CNC(=O)[C@@H](CSC[C@@H]5NC(=O)[C@H](Cc6c[nH]cn6)NC(=O)[C@@H](CSC[C@@H](C(=O)NCCCN(C)C)NC5=O)NC4=O)NC(=O)CNC(=O)CNC(=O)CNC(=O)[C@H](CCC(=O)NCCCN(C)C)NC3=O)[C@@H](C)O)CS[C@H]2C)NC(=O)[C@H](Cc2c[nH]c3ccccc23)NC1=O [Compound 3] | 4 | 2 | 64 | <0.125 | >128 | 1 | 1 | 2 | 0.50 | 4 | 1 | 2 |
| C=C1NC(=O)[C@H](C(C)C)NC(=O)[C@H](NC(=O)/C(=C/C)NC(=O)[C@@H](N)[C@@H](C)CC)CSC[C@@H](C(=O)N[C@H]2C(=O)N3CCC[C@H]3C(=O)NCC(=O)N[C@H](C(=O)N[C@H](C(=O)N[C@@H]3CSC[C@@H]4NC(=O)CNC(=O)[C@@H](CSC[C@@H]5NC(=O)[C@H](Cc6c[nH]cn6)NC(=O)[C@@H](CSC[C@@H](C(=O)NCCN(C)C)NC5=O)NC4=O)NC(=O)CNC(=O)CNC(=O)CNC(=O)[C@H](CCC(=O)NCCN(C)C)NC3=O)[C@@H](C)O)CS[C@H]2C)NC(=O)[C@H](Cc2c[nH]c3ccccc23)NC1=O [Compound 4] | 2 | 1 | 64 | <0.125 | >128 | 1 | 0.50 | 2 | 0.50 | 4 | 0.50 | 0.50 |
| C=C1NC(=O)[C@H](C(C)C)NC(=O)[C@H](NC(=O)/C(=C/C)NC(=O)[C@@H](N)[C@@H](C)CC)CSC[C@@H](C(=O)N[C@H]2C(=O)N3CCC[C@H]3C(=O)NCC(=O)N[C@H](C(=O)N[C@H](C(=O)N[C@@H]3CSC[C@@H]4NC(=O)CNC(=O)[C@@H](CSC[C@@H]5NC(=O)[C@H](Cc6c[nH]cn6)NC(=O)[C@@H](CSC[C@@H](C(=O)NCCCCN(C)C)NC5=O)NC4=O)NC(=O)CNC(=O)CNC(=O)CNC(=O)[C@H](CCC(=O)NCCCCN(C)C)NC3=O)[C@@H](C)O)CS[C@H]2C)NC(=O)[C@H](Cc2c[nH]c3ccccc23)NC1=O [Compound 12] | 4 | 2 | 64 | <0.125 | >128 | 1 | 1 | 1 | 1 | 8 | 2 | 0.50 |
| C=C1NC(=O)[C@H](C(C)C)NC(=O)[C@H](NC(=O)/C(=C/C)NC(=O)[C@@H](N)[C@@H](C)CC)CSC[C@@H](C(=O)N[C@H]2C(=O)N3CCC[C@H]3C(=O)NCC(=O)N[C@H](C(=O)N[C@H](C(=O)N[C@@H]3CSC[C@@H]4NC(=O)CNC(=O)[C@@H](CSC[C@@H]5NC(=O)[C@H](Cc6c[nH]cn6)NC(=O)[C@@H](CSC[C@@H](C(=O)O)NC5=O)NC4=O)NC(=O)CNC(=O)CNC(=O)CNC(=O)[C@H](CCC(=O)O)NC3=O)[C@@H](C)O)CS[C@H]2C)NC(=O)[C@H](Cc2c[nH]c3ccccc23)NC1=O [Compound 97518, reference compound] | 128 | >128 | 64 | 128 | >128 | >128 | 128 | 64 | >128 | 128 | >128 | 0.25 |
